The subject of assay [1] is Klebsiella pneumoniae. The assay is described as follows: Antibacterial activity against Klebsiella pneumoniae ATCC 10031 assessed as reduction in bacterial growth measured every 20 mins for 16 hrs by serial broth dilution method. It counts as functional, organism-based. On the technique in general: In broth dilution the organism is exposed to a series of concentrations in liquid medium.

Assay [2] has as its system Escherichia coli. Briefly: Antibacterial activity against Escherichia coli BW25113 assessed as reduction in bacterial growth measured every 20 mins for 16 hrs by serial broth dilution method. The assay is classed as functional, organism-based.

Bounds are passed on as bounds.

In general, IC50 refers to the concentration that gives 50% inhibition. As to `CNc1cc(F)c(F)c2c1[nH]c1ncc(-c3cc(CN(C)C)c4ncc(C(=O)O)c(=O)n4c3)c(N3CCCC3)c12`, the IC50 is below 98 nM in assay [1] and 663 nM in assay [2].

For the compound `CNc1cc(F)c(Cl)c2c1[nH]c1ncc(-c3ccc4ncc(C(=O)O)c(=O)n4c3)c(N(C)C)c12`, the IC50 in assay [1] is below 98 nM; in assay [2] it was 458 nM.

In the case of `CNc1c(F)c(F)cc2c1[nH]c1ncc(-c3ccc4ncc(C(=O)O)c(=O)n4c3)c(N(C)C)c12`, the IC50 in assay [1] was below 98 nM; in assay [2], 442 nM.

As to `CNc1cc(F)c(F)c2c1[nH]c1ncc(-c3cc(CN4CCOCC4)c4ncc(C(=O)O)c(=O)n4c3)c(N(C)C)c12`, the IC50 in assay [1] is below 98 nM; in assay [2], 523 nM.

As to `CNc1cc(F)c(F)c2c1[nH]c1ncc(-c3cc(C)c4ncc(C(=O)O)c(=O)n4c3)c(N(C)C)c12`, the IC50 in assay [1] is below 98 nM; in assay [2] it was 262 nM.

With `CNc1c(F)cc(F)c2c1[nH]c1ncc(-c3ccc4ncc(C(=O)O)c(=O)n4c3)c(N(C)C)c12`, the IC50 is below 98 nM in assay [1] and 497 nM in assay [2].

These data come from ChEMBL document CHEMBL4680365, “Novel Oxopyrido[1,2-a]pyrimidine Compounds for Treating Bacterial Infection” (ACS Med Chem Lett, 2021).
